Source: patent US20240226211A9, “SEAWEED EXTRACTS, ISOLATED COMPOUNDS, AND METHODS OF TREATMENT” (University of Florida Research Foundation, Incorporated, priority 2017, published 2024)

How the values were obtained:
[1] = system: ARE-luciferase reporter (human NQO1-ARE) in IMR-32 cells; assay: ARE-luc reporter assay in IMR-32 cells; format: cell-based; details: IMR-32 cell line
From the text: The ARE-luciferase reporter construct (ARE-luc) contains the core sequence of human NQO1-ARE1. The mock plasmid (pcDNA3-mRFP) was purchased from Addgene (plasmid 13032). The following plasmids were reported by Zhang et a/.2003 [Zhang, D. D., and Hannink, M. (2003) Distinct cysteine residues in Keap1 are required for Keap1-dependent ubiquitination of Nrf2 and for stabilization of Nrf2 by chemopreventive agents and oxidative stress. Mol. Cell. Biol. 23, 8137-8151]. The Keap1-CBD plasmid carries the entire open reading frame (ORF) of human Keap1 fused to the chitin binding domain (CBD) of the Bacillus circulans chitinase A1 gene upstream of the Keap1 stop codon. Oligonucleotide-directed mutagenesis was used to generate the Keap1-C151S-CBD and Keap1-C288S-CBD plasmids. The HA-Cul3 plasmid was constructed by fusing an N-terminal hemagglutinin (HA) tag with a cDNA sequence coding for amino acids 1-380 of human Cul3 gene. The Gal4-Neh2 expression vector contains the codons for the first 97 amino acids (Neh2 domain) of human Nrf2 fused to the ORF of the Gal4 DNA-binding domain
An ARE-luciferase reporter plasmid and CMV-GFP plasmid (to monitor transfection efficiency) were co-transfected into a human androgen-sensitive prostate cancer cell line, LNCaP (6×10^4 cells/well), and a human neuroblastoma cell line, IMR-32 (3×10^4 cells/well), using Fugene® HD (Roche Diagnostics) in 96-well format. […] J Biol Chem. 2002; 277:388-394; Lee J M, Hanson J M, Chu W A, Johnson J A. Phosphatidylinositol 3-kinase, not extracellular signal-regulated kinase, regulates activation of the antioxidant-responsive element in IMR-32 human neuroblastoma cells. […] After 24 hours of incubation, cells were treated with extracts from Cymopolia barbata, a negative control (DMSO, 1%, v/v), and a positive control ([…] sulforaphane, SF, and tert-butylhydroquinone, tBHQ, respectively.) 24 hours post-treatment, luciferase activity was detected using BriteLite detection reagent (PerkinElmer). […]

[2] = system: large intestine transcriptome; assay: RNAseq of mouse large intestine; format: in vivo
From the text: Briefly, 1st strand cDNA is primed by a modified N6 primer (the SMART N6 CDS primer), then base-pairs with these additional nucleotides, creating an extended template. The reverse transcriptase then switches templates and continues transcribing to the end of the oligonucleotide, resulting single-stranded cDNA contains sequences that are complementary to the SMARTer oligonucleotide. The SMARTer anchor sequence and the N6 sequence serve as universal priming sites for DNA amplification by PCR for 10 cycles. […] Libraries were quantitated by Bioanalyzer and qPCR (Kapa Biosystems, catalog number: KK4824). Finally, the libraries were pooled equal molar concentration and sequenced by Illumina 2X75 NextSeq 500.
In preparation for sequencing, barcoded libraries were sized on the bioanalyzer, quantitated by QUBIT and qPCR (Kapa Biosystems, catalog number: KK4824). Individual samples were pooled equimolarly at 4 nM. […] For RNA seq, 50-100 million reads provided sufficient depth for transcriptome analysis.
The web-based analysis tool, IPA, was used to further investigate the effect of the cymopols on the large intestine.

[3] = system: PGE2 production in RAW264.7 cells; assay: PGE2 assay in RAW264.7 cells; format: cell-based, mouse; details: RAW264.7, IFN-γ
Procedure: RAW264.7 cells were seeded into a 96 well format at 4×10^4 cells/well and incubated overnight at 37° C. Cells were treated with a solvent control (DMSO, 1%, v/v) or serial dilutions of isolated compounds or extracts for 1 h before the addition of IFN-γ (10 ng/mL). […] The experiment was performed using the standard manufacturer's protocol.

[4] = system: Nqo1; assay: Nqo1 transcript levels in mouse organs after oral gavage; format: in vivo; details: mice, particularly digestive tract
Procedure: The RNeasy Mini Kit (Qiagen) was used to collect total RNA from cells, while for mouse tissue, TRIzol reagent (Invitrogen) was used. In each case, total RNAs (2 μg) were reverse-transcribed into cDNAs, which were used as templates for TaqMan gene expression assay (Applied Biosystems) and detected using the 7300 Real-Time PCR System (Applied Biosystems). Each qPCR sample was tested in triplicate as a 25 μL total reaction volume (12.5 μL of Taqman 2× universal master mix, 1.25 μL of a 20× TaqMan gene expression assay probe, 1 μL of the above cDNA, and 10.25 μL of RNase-free sterile water). The qPCR method was designed as following: 50° C. for 2 min, 95° C. for 10 min, and 40 cycles of 95° C. for 15 s and 60° C. for 1 min. Endogenous controls used included GAPDH for IMR-32 cells and β-actin to normalize for RAW264.7 cells and mouse tissues.
The experiments were approved by the Institutional Animal Care & Use Committee at the University of Florida. Groups of 5-10 wild type male mice (C57BL/6J) were used for each treatment type. The mice were maintained under approved standard conditions. […] The tissues were harvested immediately, frozen on dry ice, and kept at −80° C. until analyzed.
A low dose and a high dose of cymopol (1) or the NP extract were administered to 4-week-old male mice via oral gavage.

[5] = system: ARE-luciferase reporter (human NQO1-ARE) in LNCaP cells; assay: ARE-luc reporter assay in LNCaP cells; format: cell-based; details: LNCaP cell line
From the text: The ARE-luciferase reporter construct (ARE-luc) contains the core sequence of human NQO1-ARE1. The mock plasmid (pcDNA3-mRFP) was purchased from Addgene (plasmid 13032). The following plasmids were reported by Zhang et a/.2003 [Zhang, D. D., and Hannink, M. (2003) Distinct cysteine residues in Keap1 are required for Keap1-dependent ubiquitination of Nrf2 and for stabilization of Nrf2 by chemopreventive agents and oxidative stress. Mol. Cell. Biol. 23, 8137-8151]. The Keap1-CBD plasmid carries the entire open reading frame (ORF) of human Keap1 fused to the chitin binding domain (CBD) of the Bacillus circulans chitinase A1 gene upstream of the Keap1 stop codon. […]
An ARE-luciferase reporter plasmid and CMV-GFP plasmid (to monitor transfection efficiency) were co-transfected into a human androgen-sensitive prostate cancer cell line, LNCaP (6×10^4 cells/well), and a human neuroblastoma cell line, IMR-32 (3×10^4 cells/well), using Fugene® HD (Roche Diagnostics) in 96-well format. […] After 24 hours of incubation, cells were treated with extracts from Cymopolia barbata, a negative control (DMSO, 1%, v/v), and a positive control ([…] sulforaphane, SF, and tert-butylhydroquinone, tBHQ, respectively.) 24 hours post-treatment, luciferase activity was detected using BriteLite detection reagent (PerkinElmer). […]

[6] = system: Nrf2; assay: Nuclear translocation of NRF2 in IMR-32 cells; format: cell-based, human
Procedure: IMR-32 cells were seeded in 6-well format at 2×10^6 cells/well and incubated at 37° C. overnight. The cells were treated with a solvent control (DMSO, 1%, v/v) or serial dilutions of isolated compounds or extracts for the indicated periods of time. The cytosolic and nuclear extracts were separated and prepared using a commercial kit, NE-PER Nuclear and Cytoplasmic Extraction Reagents (Thermo Scientific). Briefly, cells were gently washed once with 200 μL at DPBS before being resuspended in 1 mL DPBS, transferred to a pre-chilled tube, and pelleted at 500×g for 3 min at 4° C. The supernatant was removed and cells were resuspended in ice-cold CER I containing 1% cOmplete, EDTA-free Protease Inhibitor Cocktail (v/v, Roche Diagnostics) by vigorous vortexing. After addition of ice-cold buffer CER II, the samples were vortexed vigorously for 5 s and incubated on ice for 1 min twice before being pelleted at 16,000×g for 5 min at 4° C. The supernatant was transferred to a fresh tube and used as cytosolic stock. The pellet was washed twice by adding 75 μL ice-cold DPBS, flicking, centrifuging, and removing the supernatant before resuspension in ice-cold buffer NER supplemented with 1% cOmplete, EDTA-free Protease Inhibitor Cocktail (v/v). […] Subsequently, the cellular and nuclear extracts were analyzed by immunoblot.

[7] = system: Nrf2; assay: RNA interference of Nrf2 in IMR-32 cells, NQO1 induction; format: cell-based, human; details: IMR-32, 48 h RNAi then 24 h treatment
Procedure: The media was then carefully aspirated and replaced with a transfection mixture composed of siRNAs (50 nM) and siLentFect™ lipid transfection reagent (Bio-Rad Laboratories) in fresh medium. […] The siRNAs, siGENOME Non-Targeting siRNA Pools and siGENOME SMARTpool (human NFE2L2), were purchased from Dharmacon.
In order to determine whether NQO1 induction is Nrf2 dependent, IMR-32 cells were transfected with siRNA targeting Nrf2 or non-targeting siRNA. After 48 hours of RNAi of Nrf2, cells were treated with the samples or the vehicle control for 24 hours.

[8] = system: ARE-driven and NFκB driven genes; assay: Gene transcription in wildtype zebrafish embryos; format: in vivo
[9] = system: Nqo1; assay: Nqo1 activity assay in MEFs; format: cell-based, murine
Procedure: Wild-type (8×10^3 cells/well), Nrf2−/− (8×10^3 cells/well), and Keap1−/− (4×10^3 cells/well) MEFs were seeded into a 96-well format and incubated overnight at 37° C. Cells were treated with a solvent control (DMSO, 1%, v/v) or serial dilutions of isolated compounds or extracts for 40 hours.

[10] = system: Bacillus cereus; assay: Preliminary antibacterial testing; format: cell-based
[11] = system: nitric oxide (NO) production in RAW264.7 cells; assay: NO assay in RAW264.7 cells; format: cell-based, mouse; details: 10 μM Compound 1, IFN-γ
Procedure: RAW264.7 cells (2×10^4 cells/well), wild-type (8×10^3 cells/well), Nrf2−/−(7×10^3 cells/well), and Keap1−/−(5×10^3 cells/well) MEF were seeded into 96-well format. Cells were pretreated for 1 h with a solvent control (DMSO, 1%, v/v) or serial dilutions of isolated compounds or extracts before addition of LPS (1 μg/mL) or IFN-γ (10 ng/mL). […] In each case, 50 μL of the media was combined with 50 μL Griess Reagent (Promega). Absorbance was measured at 540 nm and compared with a calibration curve generated using the provided […] standard.

CC(C)=CCC/C(C)=C/Cc1cc(O)c(Br)cc1O [Compound 1, (E)-2-bromo-5-(3,7-dimethylocta-2,6-dien-1-yl)benzene-1,4-diol]
activation of ARE-luc [1]: most active
PI3K/Akt/mTOR pathway ([2]; large intestine RNAseq, IPA): greatly affected
Wnt/β-catenin or Sonic Hedgehog signalling ([2]; large intestine RNAseq, IPA): no notable difference
transcript levels of TNFα ([2]; large intestine, low dose): down-regulated
production of pro-inflammatory PGE2 [3]: effectively reduced the production
transcript levels of Nqo1 in various organs [4]: elevated transcript levels of Nqo1
activation of ARE-luc [5]: most active
time after which increased nuclear NRF2 levels were seen ([6]; IMR-32 cells): 18 h
nuclear translocation of NRF2 ([6]; IMR-32 cells, 0, 1, 6 or 18 hours): induced nuclear translocation of NRF2
induction of NQO1 transcript levels in siNrf2 transfected cells [7]: inhibited in siNrf2 transfected cells
ARE-driven gene transcription [8]: increase in ARE-driven gene transcription
select NFκB driven genes [8]: decrease in select NFκB driven genes
Nqo1 enzymatic activity ([9]; each MEF cell type relative to DMSO control): induce Nqo1 enzymatic activity in a dose-dependent manner
relative Nqo1 activity, wild-type versus knockout MEFs ([9]; high concentrations): more so in wild-type than in Nrf2 and Keap1 knockout MEFs
antibacterial activity [10]: inhibited
reduction in levels of NO [11]: > 96%
